Reference: patent US10035799B2, “COMT inhibiting methods and compositions” (Lieber Institute for Brain Development, priority 2015, dated 2018)

Target: T1, catechol-O-methyltransferase (COMT) (Homo sapiens, UniProt P21964)
T1 construct: M51A variant) was expressed in HEK 293F cells
T1 sequence (P21964 52-271 limits assumed): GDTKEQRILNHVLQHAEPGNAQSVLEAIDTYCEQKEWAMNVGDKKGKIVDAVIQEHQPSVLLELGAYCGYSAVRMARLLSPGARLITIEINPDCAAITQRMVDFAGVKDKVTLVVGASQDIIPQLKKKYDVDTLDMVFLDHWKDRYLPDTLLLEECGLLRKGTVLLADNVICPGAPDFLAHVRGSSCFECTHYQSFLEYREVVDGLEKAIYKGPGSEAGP
Experiment: COMT inhibition assay (HTRF, production of S-adenosyl homocysteine)
Type: biochemical
Details: recombinant human COMT, HTRF SAH production; MB-COMT or S-COMT not stated for Table 1
Description: The ability of compounds to inhibit the activity of catechol-O-methyltransferase (COMT) was determined by a homogenous time-resolved fluorescent (HTRF) assay (Lina et al, 2012; kit from CisBio, Codolet, France). This assay measures the production of S-adenosyl homocysteine (SAH) from the methyl donor S-adenosyl methionine. Recombinant human membrane bound COMT (MB-COMT; M51A variant) was expressed in HEK 293F cells using 293Fectin (Life Technologies, Gent, Belgium) and membranes prepared. The membranes were re-suspended in buffer (20 mM Tris/HCl pH 7; 10 mM glycerol; 2 mM MgCl2; 10 mM NaCl), aliquoted and stored at −80° C. Recombinant human soluble COMT(S-COMT), Va1158 variant and a hexa-His tag on the N-terminus, was purified using Ni-NTA chromatography, the His tag removed and stored in buffer as above.
For the human MB-COMT assay, membranes (62 ng/well) were incubated with SAM (20 μM final, CisBio) and dopamine (1.5 μM final; Sigma H8502, Diegem, Belgium) in the presence or absence of varying concentrations (typically 10 concentrations ranging from 10 μM to 0.1 nM) of compound for 40 min at 37° C. in 384-well microtitre plates (10 μl per well final volume). The reaction was terminated by the addition of acylation buffer and the amount of SAH produced determined according to manufacturer's instructions. Specific inhibition as that inhibited by a high concentration of tolcapone (10 μM; synthesised at UCB) and all experiments were validated using a control curve to tolcapone.
The human S-COMT assay was performed as above except that 0.15 ng enzyme/well was incubated with SAM (20 μM final) and dopamine (100 μM final) for 15 min at 37° C. and SAH production determined.
HTRF readings were performed using a Perkin Elmer Envision and results expressed as concentration of SAH produced using a standard curve. Results were analysed using non-linear regression to the 4-parameter logistic equation and pIC50 (−log 10 concentration of drug which inhibits enzyme activity/SAH production by 50%) determined.

Compound | Activity range (pIC50, COMT inhibition)
Cc1ccc(S(=O)(=O)c2ccc(O)c3ncccc23)c(C)c1 [Example 10, 5-(2,4-dimethylphenyl)sulfonylquinolin-8-ol] | +++ (a pIC50 of above about 7)
O=S(=O)(c1ccc(O)c2ncccc12)N1CCN(c2ccc(Cl)cn2)CC1 [Example 69, 5-[4-(5-chloro-2-pyridyl)piperazin-1-yl]sulfonylquinolin-8-ol] | ++ (a pIC50 of from about great than 6 to 7)
Cc1cccc(S(=O)(=O)c2ccc(O)c3ncccc23)c1 [Example 7, 5-(m-tolylsulfonyl)quinolin-8-ol] | +++ (a pIC50 of above about 7)
Cc1cc(S(=O)(=O)N(C)[C@H](C)c2ccccc2)c2cccnc2c1O [Example 115, 8-hydroxy-N,7-dimethyl-N-[(1R)-1-phenylethyl]quinoline-5-sulfonamide] | ++ (a pIC50 of from about great than 6 to 7)
CN(Cc1ccccc1)S(=O)(=O)c1ccc(O)c2ncccc12 [Example 45, N-benzyl-8-hydroxy-N-methylquinoline-5-sulfonamide] | +++ (a pIC50 of above about 7)
Cc1cccc(N2CCC(S(=O)(=O)c3ccc(O)c4ncccc34)CC2)c1C [Example 39, 5-[[1-(2,3-dimethylphenyl)-4-piperidyl]sulfonyl]quinolin-8-ol] | +++ (a pIC50 of above about 7)
O=S(=O)(c1cc(F)c(O)c2ncccc12)N1CCN(Cc2ccc(F)cc2)CC1 [Example 122, 7-fluoro-5-[4-[(4-fluorophenyl)methyl]piperazin-1-yl]sulfonyl-quinolin-8-ol] | ++ (a pIC50 of from about great than 6 to 7)
Cc1ccc(S(=O)(=O)c2ccc(O)c3ncccc23)cc1 [Example 1, 5-tosylquinolin-8-ol] | +++ (a pIC50 of above about 7)
O=S(=O)(c1ccccc1C(F)(F)F)c1ccc(O)c2ncccc12 [Example 21, 5-[2-(trifluoromethyl)phenyl]sulfonylquinolin-8-ol] | +++ (a pIC50 of above about 7)
Cc1ccc(S(=O)(=O)c2cc(F)c(O)c3ncccc23)cc1 [Example 110, 7-fluoro-5-(p-tolylsulfonyl)quinolin-8-ol] | +++ (a pIC50 of above about 7)
CCN(Cc1ccccc1)S(=O)(=O)c1ccc(O)c2ncccc12 [Example 56, N-benzyl-N-ethyl-8-hydroxy-quinoline-5-sulfonamide] | +++ (a pIC50 of above about 7)
O=S(=O)(c1ccc(O)c2ncccc12)N1CCN(c2cccc(Cl)c2Cl)CC1 [Example 97, 5-[4-(2,3-dichlorophenyl)piperazin-1-yl]sulfonylquinolin-8-ol] | ++ (a pIC50 of from about great than 6 to 7)
COc1cccc(CN(C)S(=O)(=O)c2ccc(O)c3ncccc23)c1 [Example 42, 8-hydroxy-N-[(3-methoxyphenyl)methyl]-N-methyl-quinoline-5-sulfonamide] | +++ (a pIC50 of above about 7)
O=S(=O)(c1ccc(O)c2ncccc12)N1CCN(c2ccccc2-c2ccccc2)CC1 [Example 92, 5-[4-(2-phenylphenyl)piperazin-1-yl]sulfonylquinolin-8-ol] | ++ (a pIC50 of from about great than 6 to 7)
O=S(=O)(c1ccc(O)c2ncccc12)N1C[C@@H](F)[C@H](F)C1 [Example 70, 5-[(3R,4R)-3,4-difluoropyrrolidin-1-yl]sulfonylquinolin-8-ol] | +++ (a pIC50 of above about 7)
O=S(=O)(c1ccc(O)c2ncccc12)N1CCc2ccccc2C1 [Example 40, 5-(3,4-dihydro-1H-isoquinolin-2-ylsulfonyl)quinolin-8-ol] | +++ (a pIC50 of above about 7)
O=S(=O)(c1cc(Br)c(O)c2ncccc12)N1CCN(Cc2ccc(F)cc2)CC1 [Example 121, 7-bromo-5-[4-[(4-fluorophenyl)methyl]piperazin-1-yl]sulfonyl-quinolin-8-ol] | + (a pIC50 of from about 4.5 to 6)
Cc1ccc(C)c(N2CCN(S(=O)(=O)c3ccc(O)c4ncccc34)CC2)c1 [Example 93, 5-[4-(2,5-dimethylphenyl)piperazin-1-yl]sulfonylquinolin-8-ol] | ++ (a pIC50 of from about great than 6 to 7)

Compound | Activity range (pIC50, COMT inhibition)
Cc1ccc(CCS(=O)(=O)c2ccc(O)c3ncccc23)cc1 [Example 29, 5-[2-(p-tolyl)ethylsulfonyl]quinolin-8-ol] | +++ (a pIC50 of above about 7)
CC(C)C1CCCN1S(=O)(=O)c1ccc(O)c2ncccc12 (centres unmarked) [Example 78, 5-(2-isopropylpyrrolidin-1-yl)sulfonylquinolin-8-ol] | +++ (a pIC50 of above about 7)
Cc1cccc(N2CCN(S(=O)(=O)c3ccc(O)c4ncccc34)CC2)c1C [Example 100, 5-[4-(2,3-dimethylphenyl)piperazin-1-yl]sulfonylquinolin-8-ol] | ++ (a pIC50 of from about great than 6 to 7)
O=S(=O)(c1ccc(O)c2ncccc12)c1cccc2c1ncn2Cc1ccccc1Cl [Example 28, 5-[1-[(2-chlorophenyl)methyl]benzimidazol-4-yl]sulfonylquinolin-8-ol] | +++ (a pIC50 of above about 7)
O=S(=O)(c1cc(Cl)cc(Cl)c1)c1ccc(O)c2ncccc12 [Example 8, 5-(3,5-dichlorophenyl)sulfonylquinolin-8-ol] | ++ (a pIC50 of from about great than 6 to 7)
O=S(=O)(c1ccc(O)c2ncccc12)N1CCCC1c1ccccc1C(F)(F)F (centres unmarked) [Example 81, 5-[2-[2-(trifluoromethyl)phenyl]pyrrolidin-1-yl]sulfonylquinolin-8-ol] | ++ (a pIC50 of from about great than 6 to 7)
O=S(=O)(c1ccc(O)c2ncccc12)N1CCC(O)(c2ccccc2)CC1 [Example 83, 5-[(4-hydroxy-4-phenyl-1-piperidyl)sulfonyl]quinolin-8-ol] | +++ (a pIC50 of above about 7)
CC(=O)C1(c2ccccc2)CCN(S(=O)(=O)c2ccc(O)c3ncccc23)CC1 [Example 86, 1-[1-[(8-hydroxy-5-quinolyl)sulfonyl]-4-phenyl-4-piperidyl]ethanone] | +++ (a pIC50 of above about 7)
O=S(=O)(c1ccc(O)c2ncccc12)C1CCN(Cc2cccc(Cl)c2Cl)CC1 [Example 38, 5-[[1-[(2,3-dichlorophenyl)methyl]-4-piperidyl]sulfonyl]quinolin-8-ol] | ++ (a pIC50 of from about great than 6 to 7)
O=S(=O)(c1ccccn1)c1ccc(O)c2ncccc12 [Example 16, 5-(2-pyridylsulfonyl)quinolin-8-ol] | +++ (a pIC50 of above about 7)
CC(C)CC1CCCN1S(=O)(=O)c1ccc(O)c2ncccc12 (centres unmarked) [Example 82, 5-(2-isobutylpyrrolidin-1-yl)sulfonylquinolin-8-ol] | +++ (a pIC50 of above about 7)
O=S(=O)(c1ccc(O)c2ncccc12)C1CCN(Cc2ccc(F)cc2)CC1 [Example 35, 5-[[1-[(4-fluorophenyl)methyl]-4-piperidyl]sulfonyl]quinolin-8-ol] | ++ (a pIC50 of from about great than 6 to 7)
O=S(=O)(c1ccc(O)c2ncccc12)N1CCCC1Cc1ccccc1 (centres unmarked) [Example 75, 5-(2-benzylpyrrolidin-1-yl)sulfonylquinolin-8-ol] | +++ (a pIC50 of above about 7)
CN(Cc1ccc2ccccc2c1)S(=O)(=O)c1ccc(O)c2ncccc12 [Example 55, 8-hydroxy-N-methyl-N-(2-naphthylmethyl)quinoline-5-sulfonamide] | ++ (a pIC50 of from about great than 6 to 7)
O=S(=O)(c1ccc(O)c2ncccc12)N1CCN(Cc2ccccc2)CC1 [Example 43, 5-(4-benzylpiperazin-1-yl)sulfonylquinolin-8-ol] | +++ (a pIC50 of above about 7)
O=S(=O)(c1ccc(O)c2ncccc12)N1Cc2ccccc2C1 [Example 47, 5-isoindolin-2-ylsulfonylquinolin-8-ol] | +++ (a pIC50 of above about 7)
O=S(=O)(c1ccc(O)c2ncccc12)N1CCC(Cc2ccccc2)CC1 [Example 84, 5-[(4-benzyl-1-piperidyl)sulfonyl]quinolin-8-ol] | +++ (a pIC50 of above about 7)
